In patent US20180168151A1, “COMPOSITION AND SYSTEM FOR ATTRACTING LEPIDOPTEROUS INSECTS” (The New Zealand Institute for Plant and Food Research …, priority 2015, published 2018):

Assays:
ESBM [1] = assay: Example 5: binary and ternary blends, baited traps; format: in vivo, Spilonota ocellana; conditions: 100 mg 2-phenylethanol added to 100 mg benzyl nitrile and 3 mL acetic acid
Protocol: (§1) This trial was conducted in a mixed variety apple orchard in Summerland, British Columbia, Canada from 28 Jul. to 11 Aug. 2014 targeting ESBM and threelined leaf rollers (TLLR). […] White delta traps (Trece Inc) were used.

TLLR = assay: Example 5: binary and ternary blends, baited traps; format: in vivo, Pandemis limtata; conditions: 100 mg 2-phenylethanol added to 100 mg benzyl nitrile and 3 mL acetic acid
Protocol: as §1

OBLR [2] = assay: Example 1B: individual compounds as attractants, baited traps; format: in vivo, Choristoneura rosaceana; conditions: tested individually, 10 mg
Protocol: (§2) This experiment was conducted from 28 Nov. to 12 Dec. 2013 for LBAM and 3-10 Jun. 2015 for ESBM and OBLR to investigate the biological activity of the individual volatile organic compounds. Lures of benzyl alcohol, benzyl nitrile, indole, 2-phenyethanol, (E)-nerolidol, and 0.3 mL acetic acid were made by dispensing 10 mg of each compound on a Boomerang regular cellulose acetate filter (7.5 mm diameter×10 mm, Moss Packaging Co. Ltd., Wellington, New Zealand) inside a permeable polyethylene bag (100 μm wall thickness, 20 mm×20 mm, Masterton, New Zealand) that was then heat-sealed. A trap with a lure without chemical was used as negative control.

LBAM = assay: as above; format: in vivo, Epiphyas postvittana; conditions: tested individually, 10 mg (acetic acid 0.3 mL); no significant differences among treatments
Protocol: as §2

Lepidopterous insects = assay: Summary of field attractant trials (description); format: in vivo; conditions: other compounds released by infested apple seedlings; results were inconsistent
Protocol: In the trials described in the Examples, the compounds of formula I were placed inside a permeable polyethylene bag. The acetic acid was applied to a cotton ball inside a 5 ml polyethylene vial containing a 1 mm hole. The bag and vial were placed in the centre of a sticky trap.

OBLR [3] = conditions: for numbers of OBLR males and females attracted, each alone, compared with each other: 10 mg benzyl nitrile alone, 0.3 mL acetic acid alone
Protocol: (§3) The variance of mean captures obtained with each compound or each blend of compounds was stabilized using the √(x+1) transformation of counts and the significance of treatment effects tested using ANOVA.
(§4) This experiment was conducted from 21 Jun. to 2 Jul. 2015 only for ESBM and OBLR in a mixed varieties apple orchard in Summerland, British Columbia, Canada (49°34′50.02″N, 119°38′16.57″W). The relative attractiveness of the following treatments was investigated: 1) 10 mg benzyl nitrile alone; 2) 0.3 mL acetic acid alone; and 3) 10 mg benzyl nitrile+0.3 mL acetic acid. A trap with a blank lure was used as negative control.

ESBM [4] = conditions: for numbers of ESBM males and females attracted, each alone, compared with each other: 10 mg benzyl nitrile alone, 0.3 mL acetic acid alone
Protocol: as §3, §4

ESBM [5] = assay: Example 1B: individual compounds as attractants, baited traps; format: in vivo, Spilonota ocellana; conditions: tested individually, 10 mg (acetic acid 0.3 mL); no significant differences among treatments
Protocol: as §2

OBLR [6] = test system: OBLR
Protocol: as §3
(§5) This experiment was conducted between the 11th to the 22 Jul. 2014 in a mixed variety organic apple orchard in Summerland, British Columbia, Canada. Large white delta traps (Trece Inc) were used. The loadings of blends were as follow: 1) 100 mg benzyl nitrile and 3 mL acetic acid; 2) 100 mg of 2-phenyethanol and 3 mL acetic acid; 3) 100 mg benzyl alcohol and 3 mL acetic acid. Traps baited with 3 mL of acetic acid was used to quantify the role of acetic acid. A trap with a blank lure was used as negative control. Traps were baited with the compound of formula I and placed in 5 rows, with five replicates of each treatment in a randomized block design. Traps were positioned 1.5 m above the ground in each trap tree, and were spaced 20 m apart in each row. Each treatment was assigned randomly to a trap tree within each row of trees. The polythene sachet and the acetic acid vial were attached to the side of the traps using Velcro tape. Sticky bases were checked weekly during the experimental period.
(§6) This experiment was conducted between 3 Jul. to 17 Jul. 2014 in a mixed variety organic apple orchard in Summerland, British Columbia, Canada using the same experimental protocol as Example 4. The trial targeted both ESBM and OBLR. The relative attractiveness of the following treatments was investigated: 1) 100 mg benzyl nitrile alone; 2) 3 mL acetic acid alone; and 3) 100 mg of benzyl nitrile and 3 mL acetic acid. A trap with a blank lure was used as negative control.

ESBM [7] = test system: ESBM
Protocol: as §3, §5, §6

ESBM [8] = assay: Example 7A: various doses of benzyl nitrile with constant acetic acid, baited traps; format: in vivo, Spilonota ocellana
Protocol: Large white delta traps (Trece Inc) were used. […] Sticky bases were checked weekly during the experimental period.
This experiment was conducted between 8 Jul. to 22 Jul. […] This trial targeted ESBM. The relative attractiveness of three binary blends containing constant amount of acetic acid (3 mL) plus varying amounts of benzyl nitrile (1, 10, and 100 mg) was investigated. […] Experimental protocol was similar to Example 4.

[9] = 10 mg benzyl nitrile added to 0.3 mL acetic acid, P<0.05
[10] = binary blend containing 1 mg benzyl nitrile, 3 mL acetic acid
[11] = binary blend with constant 3 mL acetic acid
[12] = 100 mg benzyl nitrile added to 3 mL acetic acid

OCCc1ccccc1 [2-phenylethanol]
change in number of ESBM males and females on addition to binary blend benzyl nitrile/acetic acid (ESBM [1]): did not result in significant increase
change in number of TLLR males and females on addition to binary blend benzyl nitrile/acetic acid (TLLR): did not result in significant increase
attraction of OBLR into traps (OBLR [2]): attracted males and females
attraction of adult LBAM into traps (LBAM): attracted males and females into the traps

C=CC(C)(O)CC/C=C(\C)CCC=C(C)C (centres unmarked) [(E)-nerolidol]
attractant activity against some insects (Lepidopterous insects): some attractant activity

CC(=O)O [acetic acid]
numbers of OBLR males and females attracted, each alone, compared with each other (OBLR [3]): attracted similar numbers
numbers of ESBM males and females attracted, each alone, compared with each other (ESBM [4]): attracted similar numbers
attraction of ESBM into traps (ESBM [5]): attracted males and females into the traps
attraction of adult LBAM into traps (LBAM): attracted males and females into the traps
OBLR males and females attracted, compared with traps baited with benzyl nitrile alone (OBLR [6]; 3 mL acetic acid alone): significantly attracted more males and females
ESBM males and females attracted, compared with traps baited with benzyl nitrile alone (ESBM [7]; 3 mL acetic acid alone): significantly attracted more males and females

OCc1ccccc1 [benzyl alcohol]
attraction of adult LBAM into traps (LBAM): attracted males and females into the traps

N#CCc1ccccc1 [benzyl nitrile]
change in number of OBLR males and females caught on addition to acetic acid (OBLR [3]; [9]): significant increases
numbers of OBLR males and females attracted, each alone, compared with each other (OBLR [3]): attracted similar numbers
change in number of ESBM males and females caught on addition to acetic acid (ESBM [4]; [9]): significant increases
numbers of ESBM males and females attracted, each alone, compared with each other (ESBM [4]): attracted similar numbers
ESBM females attracted compared with acetic acid alone (ESBM [8]; [10]): significantly more females
response of ESBM males compared with acetic acid alone (ESBM [8]; [10]): not significant
change in number of ESBM males and females caught on increasing dose from 1 mg to 10 mg (ESBM [8]; [11]): significant increase
change in number of ESBM males and females caught on increasing dose from 10 mg to 100 mg (ESBM [8]; [11]): did not result in a significant increase
attraction of ESBM into traps (ESBM [5]): attracted males and females into the traps
attraction of adult LBAM into traps (LBAM): attracted males and females into the traps
fold increase in number of OBLR females caught on addition to acetic acid (OBLR [6]; [12]): 9 fold
fold increase in number of OBLR males caught on addition to acetic acid (OBLR [6]; [12]): 2 fold
attractiveness to adults OBLR, compound alone (OBLR [6]; 100 mg benzyl nitrile alone): not attractive
fold increase in number of ESBM females caught on addition to acetic acid (ESBM [7]; [12]): 3 fold
fold increase in number of ESBM males caught on addition to acetic acid (ESBM [7]; [12]): 4 fold
attractiveness to adults ESBM, compound alone (ESBM [7]; 100 mg benzyl nitrile alone): not attractive

c1ccc2[nH]ccc2c1 [indole]
attractant activity against some insects (Lepidopterous insects): some attractant activity
